Results taken from patent publication US6562595B2, “Dominant selectable marker for gene transformation and disruption in yeasts” (McGill University, priority 2000, dated 2003).

How the values were obtained:
[1] = test system: C. albicans strain SC5314; assay: Halo assay (zones of inhibition on confluent plates); assay type: cell-based, Candida albicans
Method: (§1) Confluent plates of either S. cerevisiae diploid strain SEY6210 (left panel) or C. albicans strain SC5314 (right panel) were spotted with 5 μl of destomycin (DSM), blasticidin (BSN), nourseothricin (NST), geneticin (G418), zeocin (ZEO), and puromycin (PUR) using concentrations of 10 mg/ml, 1 mg/ml, 0.5 mg/ml, 0.25 mg/ml, 0.125 mg/ml, and 0.06 mg/ml (top to bottom). Zones of inhibition were examined after overnight growth; clear halos indicate antifungal activity;
(§2) To explore the possibility of developing a dominant selectable marker for C. albicans, geneticin, the aminoglycoside used in dominant selection studies in S. cerevisiae was initially examined for antifungal activity in C. albicans (FIG. 1). […] When a number of alternative commercially available antibiotics including zeocin, destomycin, nourseothricin, blasticidin, and puromycin were tested for antifungal activity, the present inventors discovered that C. albicans was sensitive to nourseothricin at a concentration of about 200 μg/ml. […] C. albicans was also found to be sensitive to blasticidin. […] (Webster et al., 1983, Gene 26:243-252).

[2] = test system: S. cerevisiae diploid strain SEY6210; assay: as above; assay type: cell-based, Saccharomyces cerevisiae; conditions: at concentration dramatically below that at which geneticin acts
Method: as §1, §2

[3] = test system: S. cerevisiae strain maintaining the geneticin resistance gene KanR; assay: Nourseothricin sensitivity of geneticin-resistant (KanR) strain; assay type: cell-based, Saccharomyces cerevisiae; conditions: S. cerevisiae strain with KanR
Description: The present inventors also compared the sensitivity of NST to geneticin in S. cerevisiae.

[4] = test system: C. albicans CAI4 maintaining pRC18 vector and parent strain SC5314; assay: Growth on nourseothricin-supplemented plates; assay type: cell-based, Candida albicans; conditions: 400 μg/ml; irrespective of carbon source (1% Casamino acid or YEP 2% glucose)
Method: ASTHMA, PSMP, and vector alone (lacking either SAT expression module) plasmids were transformed into CAI4 and directly selected on YPD-drug supplemented plates (400 μg/ml) prior to being restreaked onto a YPD plate containing 400 μg/ml nourseothricin. A) Six independent ASTHMA transformants, as well as the negative controls CAI4, containing pRC18, and the parent strain, SC5314 are shown after two days growth at 30° C. on YPD plates containing 400 μg/ml NST. B) Four independent PSMP transformants, as well as the negative controls, CAI4 maintaining pRC18, and SC5314, grown on YPD (left plate), and either derepressing conditions (1% Casamino acid+300 μg/ml NST, center plate), or repressing conditions (YPD+300 μg/ml NST, right plate) for PCK1 promoter-dependent expression of SAT. Plates were incubated two days at 30° C.; and
The composition of a YPD medium for culturing yeast contains 1% yeast extract, 2% bactopeptone and 2% glucose. Agar was added in an amount of 2% to the medium in the case of a plate form. Transformant were selected on Ura+ protophy and subsequently streaked onto nourseothricin-supplemented plates containing either 1% Casamino acid (derepressing conditions) or YEP containing 2% glucose (repressing conditions) as alternative carbon sources. […]

Compound | antifungal (fungicidal) activity by halo assay ([1]; C. albicans SC5314, 5 μl spots, 10 to 0.06 mg/ml, overnight growth) | antifungal activity by halo assay [2] | cross-resistance conferred by KanR [3] | growth of strains lacking SAT in the presence of the drug [4] | concentration at which C. albicans is sensitive ([1]; C. albicans) | effect of medium on antifungal effectiveness ([1]; rich, high-salt YPD plates versus minimal YNB plates)
CN(CC[C@H](N)CC(=O)N[C@H]1C=C[C@H](n2ccc(N)nc2=O)O[C@@H]1C(=O)O)C(=N)N [blasticidin] | sensitive | – | – | – | – | –
nourseothricin | – | potent antifungal activity | failed to confer resistance | failed to grow | about 200 μg/ml | dramatically more effective on rich media
